The values that follow are results of earlier work, collected in patent publication US20110224120A1, “WASHING, CLEANING, POST-TREATING OR AUXILIARY WASHING AGENT CONTAINING SILVER” (Henkel AG & Co. KGaA, priority 2008, published 2011).

Structures are written as SMILES.

The conditions of this data set: Kanicky et al., Langmuir 2000, 16, 172-177.

Regarding `CCCCCCCCCCCCCC(=O)O` [myristic acid], the pKa value is on record as 8.15.
